From patent publication US20140286906A1, “USE OF IGF-1 IN THE MODULATION OF TREG CELL ACTIVITY AND THE TREATMENT AND PREVENTION OF AUTOIMMUNE DISORDERS OR DISEASES” (priority 2011, published 2014) come the findings set out here.

Experiment [1] relates to FOXP3 positive cells (CD25+ splenic cells). Description: Foxp3 and Ki67 flow cytometric analysis of Treg proliferation. It is filed as cell-based, murine. The method, then: To determine the effect of IGF-1 in the regulatory subset in vitro (cf. FIG. 4) the number of FOXP3 positive cells is determined by flow cytometric analysis. To analyze other subsets, like the proinflammatory Th1 and Th17 subsets, a similar approach is used but the number of interferon-gamma (Th1) and IL-17 (Th17) positive cells is determined. Additionally, to evaluate the number of proliferating cells at a given moment cells are stained using the intracellular marker Ki67, which is expressed only in cycling cells. The combination of a specific lineage marker (e.g., Foxp3, IFN-g, IL-17) with Ki67 allows for the determination at a given moment of the cells belonging to a certain subset and their proliferative status.
In animal experiments, the population is isolated normally from murine spleen (but also could be isolated from other tissues, like for example but not restricted to bone marrow, adipose tissue, cord blood derived mononuclear cell, thymus, or peripheral blood) and is sorted using different markers (e.g., CD4 and CD25). This population is defined as CD4+CD25+ and includes the regulatory cells. This population is then treated in the above-mentioned medium in the presence of IGF-1. After several days of culture part of the cells are counted, fixed, permeabilized and analyzed by flow cytometry using an anti-FOXP3 antibody in combination with the same extracellular markers (CD4 and CD25). This allows for the determination of the absolute number of FOXP3 positive cells present in the culture.
To further define the proliferative effects of IGF-1, FACS-sorted CD25+ splenic cells (>98% purity) after two days in culture with recombinant IGF-1 were fixed, permeabilized and stained with antibodies against FOXP3 and Ki67. Foxp3 is a transcription factor that orchestrates the cellular and molecular programs involved in T regulatory function. Ki67 is a nuclear antigen present in proliferating cells. […] After three days of culture the number of FOXP3 positive cells was increased four-fold and the number of regulatory T cells proliferating approximately six-fold.

In a further experiment the test system is CD4+CD25+ splenic cells. Put plainly: flow cytometry of activation and homing markers on CD4+CD25+ splenic cells. Type of experiment: cell-based, murine. The settings on record: Deguelin 1 μM; Ly-294,002 and PD.98,059 10 μM (FIG. 10). From the text: The expression of certain markers on the surface of the cell is correlated with the degree of activation of the cells and also controls their trafficking and localization and consequently the compartmentalization of the immune responses. This is again measured using flow cytometric methods. For example, cells expressing high levels of CD62L preferentially migrate to secondary lymphoid tissues. However, as these cells enter the periphery (for example when they travel to affected tissues during an autoimmune process) they rapidly acquire an activated phenotype and express higher levels of CD44. Thus upregulation of CD44 is associated with a higher proliferation rate. […] The importance of this observation comes from the fact that in order to exert their suppressive properties, Tregs need to migrate to the affected tissues first. Therefore, IGF-1 not only induces activation of proliferation but also promotes their correct localization.
Finally, the inventors analyzed the ability of IGF-1 to alter the homing properties of the regulatory T cell subset. In 2003, Fisson et al. defined two distinct population of regulatory T cells in homeostatic conditions. In the steady state, some Tregs remain quiescent for long periods of time, whereas the other Treg population divides extensively and express multiple activation markers. […] This pattern of change is also consistent with a more activated phenotype. On one hand, CD44^hiCD62L^lo Treg populations, but not their CD44^loCD62L^hi counterparts, constantly incorporate BrdU, a synthetic analog of thymidine, into newly synthesized DNA in lymphoid tissues (Matsushima and Takashima, 2010). On the other hand, higher levels of CD62L have been associated with a higher capacity of Tregs to migrate to the lymph nodes, while lower levels allows them to migrate to sites of inflammation (Fisson et al., 2003; Bromley et al., 2008). Thus, T regulatory cells expressing lower levels of CD62L would have a higher inflammation-seeking capacity, which has been associated with higher suppressive potential in various inflammation models (Huehn et al., 2005). […] One, IGF-1 is able to activate a complex pathway resulting in Treg activation leading to proliferation and to selective homing and migration to the sites of inflammation. The second conclusion comes from the observation that sequential migration from blood to the target tissue and then to draining lymph nodes is required for nTreg to differentiate and execute fully their suppressive function, by inhibiting dendritic cells in the peripheral tissue and T effector cell responses in dLN and periphery (Zhang et al., 2009). Thus, IGF-1 treatment not only results in higher numbers of T regulatory cells but also in altering the trafficking of these cells to achieve a higher suppressive effect. […]

As for `COc1cccc(-c2cc(=O)c3ccccc3o2)c1N` [PD.98,059, reference compound], the “effect of inhibitor on IGF-1 effect on Treg proliferation” value (“effect of inhibitor on IGF-1 effect” below) in experiment [1] (inhibitor 10 μM) is “partially blocked”. Consider `COc1cc2c(cc1OC)[C@@H]1C(=O)c3ccc4c(c3O[C@@H]1CO2)C=CC(C)(C)O4` [Deguelin, reference compound], for which the “sensitivity of IGF-1 induced CD62L and CD44 changes to pathway inhibitor” value in the experiment with CD4+CD25+ splenic cells is listed as “more sensitive”. The “effect of inhibitor on IGF-1 effect” value in experiment [1] (inhibitor 1 μM) was “partially blocked”. For the molecule `O=c1cc(N2CCOCC2)oc2c(-c3ccccc3)cccc12` [Ly-294,002, reference compound], the “effect of inhibitor on IGF-1 effect” value in experiment [1] (inhibitor 10 μM) is “sensitive”.
